Legend:
[1] = tested on: PA0165 pancreatic xenograft; assay: Pancreatic xenograft PA0165, Compound A and Romidepsin; format: in vivo, NSG mice
Protocol: 3/4 is 3 days on and 4 days off; Q4D is once every 4 days; Q7D is once every 7 days; —— Control; - - - - Compound A 25 mg/kg, 3/4; - —— - —— Romidepsin 1.5 mg/kg Q4D×3; —— —— Compound A 25 mg/kg. 3/4 combined with Romidepsin 1.5 mg/kg Q7D; - - - Compound A 25 mg/kg, 3/4 combined with Romidepsin 0.75 mg/kg Q7D. Tumor volumes were plotted as mean±standard error of the mean (SEM).
3/4 is 3 days on and 4 days off; Q4D is once every 4 days. —— Control; - - - - Compound A at 25 mg/kg, 3/4; - —— - —— Romidepsin 1.5 mg/kg Q4D×3; —— —— Compound A 25 mg/kg, 3/4 combined with Romidepsin 1.5 mg/kg Q7D; - - - Compound A 25 mg/kg, 3/4 combined with Romidepsin 0.75 mg/kg Q7D.
Cohorts of 4-6 wk-old NSG mice bearing PA0165 were treated with Romidepsin at 1.5 mg/kg intravenous (IV)×3 Q4D; Compound A 25 mg/kg orally QD 3 days on then 4 days off; or with a combination of Compound A 25 mg/kg orally QD 3 days on then 4 days off and Romidepsin at 1.5 or 0.75 mg/kg IV Q7D. The treatment lasted 21 days.

[2] = non-leukemic hematologic malignancies; cited from earlier work
locally advanced BCC = conditions: cited from earlier work
basal cell carcinoma = conditions: BCC; cited from earlier work

## C/C=C1\NC(=O)[C@H]2CSSCC/C=C/[C@H](CC(=O)N[C@H](C(C)C)C(=O)N2)OC(=O)[C@H](C(C)C)NC1=O [Romidepsin, (1S,4S,7Z,10S,16E,21R)-7-ethylidene4,21-diisopropyl-2-oxa-12,13-dithia-5,8,20,23-tetrazabicyclo[8.7.6]tricos-16-ene-3,6,9,19,22pentone, reference compound]
[1]; Romidepsin 1.5 mg/kg IV ×3 Q4D alone, 21 days
  TGI: 45%
[1]; day 30, Romidepsin only group
  survival rate: about 10%

## Cc1sc2c(c1C)C(c1ccc(Cl)cc1)=N[C@@H](CC(=O)Nc1ccc(O)cc1)c1nnc(C)n1-2 [OTX015]
[2]
  patients with Grade 3 hyperglycemia: 1 patient

## Cc1c(C(=O)Nc2ccc(N3C[C@@H](C)O[C@@H](C)C3)nc2)cccc1-c1ccc(OC(F)(F)F)cc1 [sonidegib]
Locally advanced BCC
  investigator-assessed responses lasting at least six months: 60%

## CS(=O)(=O)c1ccc(C(=O)Nc2ccc(Cl)c(-c3ccccn3)c2)c(Cl)c1 [vismodegib]
Basal cell carcinoma
  median duration of response: 7.6 months

From US11464771B2, “Bromodomain and extra-terminal protein inhibitor combination therapy” (CELGENE QUANTICEL RESEARCH, INC., priority 2016, dated 2022)
